Results reported in patent publication US8227464B2, “Substituted oxazolidinone derivatives” (Concert Pharmaceuticals, Inc., priority 2007, dated 2012).
Like-named read-outs stand apart in the source and are kept apart here. Each block holds one molecule with its values, some of them ahead of it.

Legend:
[1] = Pharmacokinetics in male Sprague Dawley rats following oral co-dosing; format: in vivo
Description: Separate solutions of rivaroxaban and Compound 101 were prepared using 20% ethanol, 60% PEG400, 20% dimethyl isosorbide to provide a concentration of 10 mg/mL. The concentration of each solution was confirmed by HPLC prior to further use. A combination dose of rivaroxaban and Compound 101 was prepared by mixing the two solutions in a 1.09:1 ratio to yield a final concentration of 5.45 mg/mL of rivaroxaban and 5 mg/mL for Compound 101.
Two male Sprague Dawley rats were dosed by oral gavage with the combination dose containing rivaroxaban (5.45 mg/kg) and compound 101 (5 mg/kg). Blood samples (approximately 0.25 mL) were collected retro-orbitally following oral administration at 0 minutes (min) (pre-dose), 5 min, 15 min, 30 min, 1 hr, 1.5 hr, 2 hr, 4 hr, 6 hr, 8 hr, 10 hr and 24 hr post-dose. Blood samples were stored on ice and centrifuged within 15 minutes of collection to harvest plasma. The plasma was decanted immediately and frozen at −20° C. until analysis.
Analyses of plasma samples were performed using a high performance liquid chromatography/mass spectrometry (HPLC/MS/MS) method. The LC system comprised an Agilent (Agilent Technologies Inc. USA) liquid chromatograph equipped with an isocratic pump (1100 series), an autosampler (1100 series) and a degasser (1100 series). Mass spectrometric analysis was performed using an API3000 (triple-quadrupole) instrument from AB Inc (Canada) with an ESI interface. The data acquisition and control system were created using Analyst 1.4 software from ABI Inc. Data for rivaroxaban was corrected by multiplying by a factor of 0.91 to compensate for the 9% increased amount administered as compared to Compound 101.

[2] = use of rivaroxaban; Kubitza et al. 2005; cited from earlier work
[3] = major in vivo metabolites of rivaroxaban; Weinz et al. 2004; cited from earlier work
[4] = male Sprague Dawley rats, oral gavage co-dose: rivaroxaban 5.45 mg/kg (data multiplied by 0.91) and Compound 101 5 mg/kg, plasma

AUC(0-inf) ([1]; rat, male Sprague Dawley rats, oral gavage co-dose: rivaroxaban 5.45 mg/kg (data multiplied by 0.91) and Compound 101 5 mg/kg, plasma): 2930 ng·h/mL | Cmax ([1]; rat, male Sprague Dawley rats, oral gavage co-dose: rivaroxaban 5.45 mg/kg (data multiplied by 0.91) and Compound 101 5 mg/kg, plasma, read-out: Cmax): 842 ng/mL
Compound: O=C(NC[C@H]1CN(c2ccc(N3CCOCC3=O)cc2)C(=O)O1)c1ccc(Cl)s1 [Rivaroxaban, 5-chloro-N-[2-oxo-3-[4-(3-oxomorpholin-4-yl)phenyl]oxazolidin-5(S)-ylmethyl]thiophene-2-carboxamide, reference compound]
adverse events [2]: ageusia (loss of taste), ecchymosis (bruising) and headache

Compound: O=C(O)CNC(=O)c1ccc(Cl)s1 [Compound M4]
activity of metabolite [3]: Neither metabolite is active

AUC∞ [1, 4]: 3424.33 ng·h/mL | Cmax [1, 4]: 962 ng/mL | increase in AUC as compared to rivaroxaban ([1]; rats, oral co-dosing): greater than 16% | increase in Cmax as compared to rivaroxaban ([1]; rats, oral co-dosing): greater than 14%
Compound: [2H]C1([2H])OC([2H])([2H])C([2H])([2H])N(c2ccc(N3C[C@H](CNC(=O)c4ccc(Cl)s4)OC3=O)cc2)C1=O [Compound 101, (S)-5-chloro-N-((2-oxo-3-(4-(3-oxo-2,2,5,5,6,6-d6-morpholino)phenyl)oxazolidin-5-yl)methyl)thiophene-2-carboxamide]
